Measured values from US20130079345A1, “[…] ACTIVE DISUBSTITUTED TRIAZINE DERIVATIVES” (BAYER INTELLECTUAL PROPERTY GMBH, priority 2010, published 2013).

Key:
[1] = target: T1, CDK9 (Homo sapiens, UniProt P50750); experiment: Lance Ultra KinaSelect Assay, CDK9; type: biochemical; conditions: read-out: Inhibition (IC50) CDK9
T1 construct: purchased Invitrogen
Method: This protocol describes how the Lance Ultra KinaSelect Assay was performed to determine half maximal inhibitory concentration (IC50) of compounds of general formula (I) and CDK/Cyclin complexes. The principle behind this enzymatic assay is based upon the phosphorylation of the ULight-Peptide Substrat. It is detected by using a specific EU-labeled anti-phospho peptide antibody. The binding of the Eu-labeled anti-phospho peptide antibody to the phosphorylated U Light labeled peptide gives rise to a FRET-signal. Binding of an inhibitor to the kinase prevents phosphorylation of the ULight-MBP Substrat, resulting in a loss of FRET.
The compounds of general formula (I) summarized in Table 5 were diluted from a 10 mM DMSO stock solution 1:10 in a total volume of 15 μL DMSO. This compound predilution was then serial diluted 1:3 over 8 steps in DMSO and briefly spun down. Each compound solution was now diluted 1:20 in Enzymatic Buffer (HEPES: 50 mM, pH: 7.5; MgCl2: 10 mM; EGTA: 1 mM; DTT: 2 mM; Tween-20: 0.01%), mixed thoroughly and spun down. For every sample, 2 μL of the diluted compound were mixed with 6 μL CDK/Cyclin/Substrat solution and […] in a well of a small volume 384 well plate (Corning Incorporated, Corning, N.Y., USA; order no. 3673). […] For positive controls, in each well 2 μL of DMSO solution (1% final DMSO assay concentration) was mixed with 6 μL CDK/Cyclin/Substrat (appropriate final concentration see Table 3) and 2 μL Tracer ATP solution (appropriate final concentration see Table 3). Positive and negative controls were calculated from at least 8 different sample wells. The 384 well plates were mixed in a Teleshaker plate mixer (Beckman Coulter, Brea, Calif., USA) at 2000 rpm for 40 sec, and incubated for 1 h at room temperature. Before reading, 10 μL detection buffer (Lance Detection Buffer 1×; EDTA: […]; Eu-Anti-P-MBP: see Table 3) was added. The FRET signal was measured at 340 nm excitation, 665 nm and 615 nm emission (for the kinase tracer and LanthaScreen Eu-AB, respectively) with an Envision spectrophotometer (Perkin Elmer, Waltham, Mass., USA) with 50 μs delay and 300 μs integration time. IC50 values were determined from the sigmoidal dose response curves with the software Quattro Workflow (Quattro GmbH, Munich, Germany).

[2] = target: T2, CDK9/Cyclin T1 (Homo sapiens, UniProt P50750); experiment: LanthaScreen Eu Kinase Binding Assay, CDK9/Cyclin T1; conditions: tracer 236, read-out: Affinity (Kd) CDK9/Cyclin T1
T2 construct: purchased Invitrogen
T2 sequence (P50750 whole entry): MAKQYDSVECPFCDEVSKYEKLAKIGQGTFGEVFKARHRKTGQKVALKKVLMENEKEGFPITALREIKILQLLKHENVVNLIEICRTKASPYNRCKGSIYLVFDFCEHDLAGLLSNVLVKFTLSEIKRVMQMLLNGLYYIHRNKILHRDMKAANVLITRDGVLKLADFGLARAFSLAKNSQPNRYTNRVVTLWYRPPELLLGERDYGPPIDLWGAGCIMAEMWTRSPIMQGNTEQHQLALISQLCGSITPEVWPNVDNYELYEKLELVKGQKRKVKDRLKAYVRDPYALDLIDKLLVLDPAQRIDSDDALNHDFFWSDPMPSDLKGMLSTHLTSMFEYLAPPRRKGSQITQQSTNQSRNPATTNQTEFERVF
T2 sequence (O60563 whole entry partner): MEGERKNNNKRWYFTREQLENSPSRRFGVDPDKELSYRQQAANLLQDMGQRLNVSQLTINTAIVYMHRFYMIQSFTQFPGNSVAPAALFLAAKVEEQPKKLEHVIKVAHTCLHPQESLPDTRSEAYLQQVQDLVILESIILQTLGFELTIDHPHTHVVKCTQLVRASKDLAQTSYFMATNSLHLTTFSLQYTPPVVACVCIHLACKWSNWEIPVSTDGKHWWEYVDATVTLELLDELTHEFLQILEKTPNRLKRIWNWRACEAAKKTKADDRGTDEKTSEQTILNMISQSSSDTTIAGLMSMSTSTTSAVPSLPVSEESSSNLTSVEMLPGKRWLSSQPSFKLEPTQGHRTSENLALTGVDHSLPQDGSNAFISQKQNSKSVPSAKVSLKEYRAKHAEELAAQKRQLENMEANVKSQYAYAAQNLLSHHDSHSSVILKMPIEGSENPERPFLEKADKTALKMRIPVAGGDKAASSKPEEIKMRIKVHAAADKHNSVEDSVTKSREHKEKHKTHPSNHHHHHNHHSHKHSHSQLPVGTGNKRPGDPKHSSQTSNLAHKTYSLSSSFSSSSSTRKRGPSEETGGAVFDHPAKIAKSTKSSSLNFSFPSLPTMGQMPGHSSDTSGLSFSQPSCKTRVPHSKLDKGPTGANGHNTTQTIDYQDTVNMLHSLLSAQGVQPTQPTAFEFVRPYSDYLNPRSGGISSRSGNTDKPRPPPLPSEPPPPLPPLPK
Outline: (§1)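 TR-FRET competition binding with Alexa Fluor 647 tracer and Eu-anti-GST antibody; e.g. CDK2/Cyclin A 15 nM with tracer 236 60 nM (working solutions). Kinase buffer: HEPES 20 mM pH 8.0, MgCl2 10 mM, DTT 1 mM, Brij-35 0.01%; 8-point 1:3 series, 1 h at room temperature; Kd from sigmoidal dose-response curves.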

[3] = target: T3, CDK9/Cyclin K (Homo sapiens, UniProt P50750); experiment: LanthaScreen Eu Kinase Binding Assay, CDK9/Cyclin K; conditions: tracer 236, read-out: Affinity (Kd) CDK9/Cyclin K
T3 construct: purchased Invitrogen
T3 sequence (P50750 whole entry): as the sequence (P50750 whole entry) above
T3 sequence (O75909 whole entry partner): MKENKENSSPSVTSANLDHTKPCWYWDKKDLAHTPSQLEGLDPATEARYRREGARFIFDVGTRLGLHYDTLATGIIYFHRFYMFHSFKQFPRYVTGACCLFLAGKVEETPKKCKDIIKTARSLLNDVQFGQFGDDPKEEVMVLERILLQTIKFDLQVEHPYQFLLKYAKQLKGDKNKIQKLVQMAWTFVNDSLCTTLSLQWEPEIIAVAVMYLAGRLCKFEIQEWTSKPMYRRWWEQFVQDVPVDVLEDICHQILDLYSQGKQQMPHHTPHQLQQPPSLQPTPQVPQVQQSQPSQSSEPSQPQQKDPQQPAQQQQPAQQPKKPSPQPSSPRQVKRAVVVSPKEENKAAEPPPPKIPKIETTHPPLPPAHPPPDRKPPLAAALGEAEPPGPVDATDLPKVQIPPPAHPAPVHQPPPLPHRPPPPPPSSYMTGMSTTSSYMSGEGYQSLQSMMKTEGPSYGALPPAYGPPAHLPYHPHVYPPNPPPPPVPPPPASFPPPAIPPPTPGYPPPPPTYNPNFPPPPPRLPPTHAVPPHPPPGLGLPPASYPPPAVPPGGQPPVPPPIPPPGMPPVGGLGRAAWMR
Outline: as §1

[4] = target: T4, CDK7/CyclinH/Mat1 (Homo sapiens, UniProt P50613); experiment: LanthaScreen Eu Kinase Binding Assay, CDK7; conditions: tracer 236, read-out: Affinity (Kd) CDK7
T4 construct: purchased Carna Biosciences
T4 sequence (P50613 whole entry): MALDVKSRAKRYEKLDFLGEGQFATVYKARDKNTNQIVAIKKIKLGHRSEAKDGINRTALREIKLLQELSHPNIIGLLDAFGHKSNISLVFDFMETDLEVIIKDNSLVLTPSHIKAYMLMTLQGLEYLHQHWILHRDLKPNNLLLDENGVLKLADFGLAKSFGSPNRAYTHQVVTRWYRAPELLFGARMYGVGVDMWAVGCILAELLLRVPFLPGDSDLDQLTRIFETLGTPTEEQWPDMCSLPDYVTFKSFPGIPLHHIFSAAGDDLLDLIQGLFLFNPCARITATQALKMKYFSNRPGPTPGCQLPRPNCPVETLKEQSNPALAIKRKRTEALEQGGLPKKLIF
T4 sequence (P51946 whole entry partner): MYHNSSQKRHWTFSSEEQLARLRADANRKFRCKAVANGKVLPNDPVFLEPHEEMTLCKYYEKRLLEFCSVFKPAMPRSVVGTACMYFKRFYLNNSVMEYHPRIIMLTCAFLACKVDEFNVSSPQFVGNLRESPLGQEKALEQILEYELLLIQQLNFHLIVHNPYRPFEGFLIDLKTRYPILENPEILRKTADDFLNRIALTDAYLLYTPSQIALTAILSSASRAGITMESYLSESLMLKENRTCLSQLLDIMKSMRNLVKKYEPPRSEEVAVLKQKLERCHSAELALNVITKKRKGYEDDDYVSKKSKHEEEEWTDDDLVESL
T4 sequence (P51948 whole entry partner): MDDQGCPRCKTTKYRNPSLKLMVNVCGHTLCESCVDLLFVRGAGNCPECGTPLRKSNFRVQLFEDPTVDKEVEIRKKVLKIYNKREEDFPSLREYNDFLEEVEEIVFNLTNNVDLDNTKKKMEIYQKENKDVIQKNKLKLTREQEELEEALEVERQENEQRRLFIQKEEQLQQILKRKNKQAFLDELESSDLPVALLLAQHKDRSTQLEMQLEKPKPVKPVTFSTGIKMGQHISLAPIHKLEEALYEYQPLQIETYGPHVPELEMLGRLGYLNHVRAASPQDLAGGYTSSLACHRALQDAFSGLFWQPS
Outline: as §1

[5] = target: T5, CDK2/CyclinA (Homo sapiens, UniProt P24941); experiment: LanthaScreen Eu Kinase Binding Assay, CDK2; conditions: tracer 236, read-out: Affinity (Kd) CDK2
T5 construct: purchased Proqinase
Outline: as §1

[6] = system: MDAMB468 cells; experiment: Cell viability assay, MDAMB468 cells; type: cell-based; conditions: Homo sapiens, MDA-MB-468, 72 h, Cell Titer Glo
Method: (§2) HeLa- or MDAMB468-Cells or MATU ADR, H460, DU145, CACO-2 or B16F10 cells were maintained in RPMI 1640 or McCoy's 5A cell culture medium+glutamine (PAN Biotech GmbH, Aidenbach, Germany; order no. P04-22100; P04-05500) supplemented with 10% fetal calf serum “Gold” (PAA Laboratories GmbH, Pasching, Austria; order no. A15-151) and grown at 37° C., 5% CO2. For the cell viability assay, cells were seeded with a density of 400 (Hela cells, DSMZ Braunschweig order no. ACC57) or 800 (MDAMB468 cells, ATCC order no. HTB-132) per well in 25 μL in 384-well plates (Greiner Bio-One, Frickenhausen, Germany; order no. 781080). After overnight incubation at 37° C./5% CO2, 25 nL or 75 nL compound were added to each sample well by using BIOMEK FXP Laboratory Automation Workstation (Beckman Coulter, USA). Wells with cells and 0.1% or 0.3% DMSO in culture medium were used as positive controls, wells with cells and 10 μM staurosporine in culture medium were used as negative controls. The cells were incubated with the compounds for 72 h at 37° C./5% CO2. For measurement of cell viability […] Cell Titer Glo reagent (Promega, Madison, USA; order no. G7573), 1:2 diluted with cell culture medium, was added to each well. The 384well-plates were placed for 2 min on an orbital microplate shaker and incubated for further 10 min at room temperature to stabilize the luminescence signal. Luminescence was measured by Envision Plate Reader (Perkin Elmer, USA). EC50 values were calculated with the software Excel Fit (IDBS, Guildford, UK) from 3-fold dilution series comprising at least 8 concentrations in duplicates.

[7] = system: HeLa cells; experiment: Cell viability, HeLa cells; type: cell-based; conditions: Homo sapiens
Method: as §2
Cultivated tumour cells (NCl-H460, human non-small cell lung carcinoma cells, ATCC HTB-177; DU 145, hormone-independent human prostate carcinoma cells, ATCC HTB-81; HeLa-MaTu, human cervical carcinoma cells, EPO-GmbH, Berlin; HeLa-MaTu-ADR, multidrug-resistant human cervical carcinoma cells, EPO-GmbH, Berlin; HeLa human cervical tumour cells, ATCC CCL-2; Caco-2 human colorectal carcinoma, ATCC HTB-37; B16F10 mouse melanoma cells, ATCC CRL-6475) were plated at a density of 5,000 cells/well (DU145, HeLa-MaTu-ADR), 3,000 cells/well (NCl-H460, HeLa-MaTu, HeLa), 1,500 cells/well (Caco-2), or 1,000 cells/well (B16F10) in a 96-well multititer plate in 200 μL of their respective growth medium supplemented with 10% fetal calf serum. After 24 hours, the cells of one plate (zero-point plate) were stained with crystal violet (see below), while the medium of the other plates was replaced by fresh culture medium (200 μl), to which the test substances were added in various concentrations (0 μM as well as in the range of 0.001 to 10 μM; the final concentration of the solvent dimethyl sulfoxide was 0.5%). The cells were incubated in the presence of test substances for 4 days. Cell proliferation was determined by staining the cells with crystal violet: The cells were fixed by adding 20 μl/measuring point of an 11% glutaric aldehyde solution at room temperature for 15 minutes. After three washing cycles of the fixed cells with water, the plates were dried at room temperature. The cells were stained by adding 100 μl/measuring point of a 0.1% crystal violet solution (pH 3.0). After three washing cycles of the stained cells with water, the plates were dried at room temperature. The dye was dissolved by adding 100 μl/measuring point of a 10% acetic acid solution. The extinction was determined by photometry at a wavelength of 595 nm. The change of cell number, in percent, was calculated by normalization of the measured values to the extinction values of the zero-point plate (equivalent to 0%) and the extinction of the untreated (0 μm) cells (equivalent to 100%). The IC50 values were determined by means of a 4 parameter fit using the company's own software.

[8] = target: T6, CDK2/CycE (Homo sapiens, UniProt P24941); experiment: CDK2/CycE kinase assay (TR-FRET); type: biochemical; conditions: ATP 10 μM, values given in μM
T6 construct: GST; purchased ProQinase GmbH (Freiburg, Germany); host or cells: insect cells (Sf-9)
Description: CDK2/CycE-inhibitory activity of compounds of the present invention was quantified employing the CDK2/CycE TR-FRET assay as described in the following paragraphs.
Recombinant fusion proteins of glutathione S-transferase (GST) and human CDK2 and of GST and human CycE, expressed in insect cells (Sf-9) and purified by glutathion-sepharose affinity chromatography, were purchased from ProQinase GmbH (Freiburg, Germany). A biotinylated peptide biotin-Ttds-[…] (C-terminus in amide form), which can be purchased from e.g the company JERINI Peptide Technologies (Berlin, Germany), was used as a substrate for the kinase reaction.
For the assay, 50 nl of a 100-fold concentrated solution of the test compound in DMSO was pipetted into a well of a black low-volume 384-well microtiter plate (Greiner Bio-One, Frickenhausen, Germany), 2 μl of a solution of CDK2/CycE in aqueous assay buffer [50 mM Tris/HCl pH 8.0], 10 mM MgCl2, 1.0 mM dithiothreitol, 0.1 mM sodium ortho-vanadate, 0.01% (v/v) Nonidet-P40 (Sigma)] were added. The mixture was incubated at 22° C. for 15 min to allow pre-binding of the test compounds to the enzyme before the start of the kinase reaction. […] The resulting mixture was incubated at 22° C. for 25 minutes. The concentration of CDK2/CycE was adjusted depending on the activity of the enzyme lot and was chosen appropriately for measurements in the linear range of the assay. Typical concentrations were in the range of 130 ng/ml. The reaction was stopped by the addition of 5 μl of a solution of TR-FRET detection reagents (0.2 μM streptavidine-XL and 1 nM anti-RB(pSer807/pSer811)-antibody from BD Pharmingen [#558389] and 1.2 nM LANCE EU-W1024 labeled anti-mouse IgG antibody [Perkin-Elmer, product no. AD0077]) in an aqueous EDTA-solution (100 mM EDTA, 0.2% (w/v) bovine serum albumin in 100 mM HEPES/NaOH, pH 7.0).
The resulting mixture was incubated at 22° C. for one hour to allow the formation of a complex between the phosphorylated biotinylated peptide and the detection reagents. Subsequently, the amount of phosphorylated substrate was evaluated by measuring the resonance energy transfer from the Eu-chelate to the streptavidine-XL. Therefore, the fluorescence emissions at 620 nm and 665 nm after excitation at 350 nm were measured in a high time-resolved fluorometry (HTRF) reader, e.g. a Rubystar (BMG Labtechnologies, Offenburg, Germany) or a Viewlux (Perkin-Elmer). The ratio of the emissions at 665 nm and at […] was taken as a measure for the amounts of phosphorylated substrate. The data were normalised, i.e. enzyme reaction without inhibitor corresponds to 0% inhibition, and all other assay components in the absence of the enzyme correspond to 100% inhibition. IC50 values were calculated by a 4-parameter fit using in-house software.

T1 sequence (P50750 whole entry): as the sequence (P50750 whole entry) above

| SMILES | IC50 [1] | Kd [2] | Kd [3] | Kd [4] | Kd [5] | IC50 [6] | IC50 [7] | IC50 [8] |
| --- | --- | --- | --- | --- | --- | --- | --- | --- |
| COc1ccccc1-c1ncnc(Nc2cccc(C(N)=O)c2)n1 [Compound E1, 3-[(4-(2-Methoxyphenyl)-1,3,5-triazin-2-yl)amino]benzamide] | 837 nM | 136 nM | 301 nM | > 10000 nM | 2160 nM | 23000 nM | – | – |
| COc1ccccc1-c1cc(Nc2cccc(CS(N)(=O)=O)c2)ncn1 [Ref1, C-{3-[6-(2-Methoxy-phenyl)-pyrimidin-4-ylamino]-phenyl}-methanesulfonamide, reference compound] | – | – | – | – | – | – | 3400 nM | 2.1 µM |
